From ChEMBL document CHEMBL4219129, “Design, synthesis and biological evaluation of spiropyrimidinetriones oxazolidinone derivatives as antibacterial agents” (2018)

How the values were obtained:
Format in all cases: functional
[1] = system: Staphylococcus epidermidis; assay: Antibacterial activity against linezolid-resistant Staphylococcus epidermidis 1117174
[2] = system: Escherichia coli; assay: Antibacterial activity against Escherichia coli MG1655; conditions: K-12 substr. MG1655
[3] = system: Staphylococcus aureus; assay: Antibacterial activity against methicillin-resistant Staphylococcus aureus USA300 BAA-1556
[4] = system: Staphylococcus aureus; assay: Antibacterial activity against linezolid-resistant Staphylococcus aureus O-128
[5] = system: Staphylococcus aureus; assay: Antibacterial activity against Staphylococcus aureus Mu50 ATCC 700699
[6] = system: Staphylococcus aureus; assay: Antibacterial activity against methicillin-resistant Staphylococcus aureus DB-00026
[7] = system: Staphylococcus aureus; assay: Antibacterial activity against methicillin-resistant Staphylococcus aureus 562
[8] = system: Staphylococcus aureus; assay: Antibacterial activity against Staphylococcus aureus ATCC 29213
[9] = system: Escherichia coli; assay: Antibacterial activity against TolC-deficient Escherichia coli
[10] = system: Staphylococcus aureus; assay: Antibacterial activity against […] Staphylococcus aureus ATCC 13709 SMITH
[11] = system: Staphylococcus epidermidis; assay: Antibacterial activity against methicillin-resistant Staphylococcus epidermidis ATCC 35984
[12] = system: Staphylococcus epidermidis; assay: Antibacterial activity against linezolid-resistant Staphylococcus epidermidis 1089191
[13] = system: Staphylococcus epidermidis; assay: Antibacterial activity against Staphylococcus epidermidis ATCC 12228
[14] = system: Staphylococcus aureus; assay: Antibacterial activity against methicillin-resistant Staphylococcus aureus 1201984
[15] = system: Staphylococcus aureus; assay: Antibacterial activity against Staphylococcus aureus FDA 209P
[16] = system: Staphylococcus aureus; assay: Antibacterial activity against PVL positive Staphylococcus aureus

Measured: MIC

O=C1NC(=O)C2(Cc3cc(-c4ccc(N5C[C@H](CO)OC5=O)cc4F)ccc3N3CCOCC32)C(=O)N1 (stereo not given in full)
4 µg/mL: [5] | [7] | [9] | [13]
32 µg/mL: [1] | [4] | [10]
8 µg/mL: [3] | [6] | [8] | [15] | [16]
> 32 µg/mL: [2] | [12]
2 µg/mL: [11]
16 µg/mL: [14]

CCC(=O)NC[C@H]1CN(c2ccc(-c3ccc4c(c3)CC3(C(=O)NC(=O)NC3=O)C3COCCN43)c(F)c2)C(=O)O1 (stereo not given in full)
> 32 µg/mL: [2] | [10] | [12]
16 µg/mL: [3] | [6] | [14] | [15] | [16]
4 µg/mL: [5] | [7] | [9] | [11] | [13]
32 µg/mL: [1] | [4]
8 µg/mL: [8]

CCOC(=O)NC[C@H]1CN(c2ccc(-c3ccc4c(c3)CC3(C(=O)NC(=O)NC3=O)C3COCCN43)c(F)c2)C(=O)O1 (stereo not given in full)
16 µg/mL: [3] | [6] | [8] | [15]
8 µg/mL: [5] | [7] | [9] | [11] | [13]
32 µg/mL: [1] | [14] | [16]
> 32 µg/mL: [2] | [4] | [10] | [12]

CC(=O)NC[C@H]1CN(c2ccc(-c3ccc4c(c3)CC3(C(=O)NNC3=O)C3CCCN43)c(F)c2)C(=O)O1 (stereo not given in full)
32 µg/mL: [4]
> 32 µg/mL: [1] | [2] | [10] | [12]
8 µg/mL: [3] | [6] | [7] | [8] | [13]
4 µg/mL: [5] | [11]
16 µg/mL: [9] | [14] | [15] | [16]

CCC(=O)NC[C@H]1CN(c2ccc(-c3ccc4c(c3)CC3(C(=O)NC(=O)NC3=O)C3CCCN43)c(F)c2)C(=O)O1 (stereo not given in full)
4 µg/mL: [7] | [11]
8 µg/mL: [5] | [6] | [9] | [13] | [14] | [15] | [16]
16 µg/mL: [3] | [8]
32 µg/mL: [1] | [4] | [10]
> 32 µg/mL: [2] | [12]

COC(=O)C1(C(=O)OC)Cc2cc(-c3ccc(N4C[C@H](CNC(C)=O)OC4=O)cc3F)ccc2N2CCOCC21 (stereo not given in full)
> 32 µg/mL: [2] | [10] | [12]
32 µg/mL: [1] | [4]
4 µg/mL: [7] | [11] | [13] | [14] | [16]
16 µg/mL: [3] | [6] | [9] | [15]
8 µg/mL: [5] | [8]

O=C1NC(=O)C2(Cc3cc(-c4ccc(N5C[C@H](CO)OC5=O)cc4F)ccc3N3CCCC32)C(=O)N1 (stereo not given in full)
8 µg/mL: [3] | [6]
> 32 µg/mL: [2] | [12]
4 µg/mL: [8] | [9] | [14] | [15] | [16]
2 µg/mL: [5] | [7] | [13]
32 µg/mL: [1] | [4] | [10]
≤ 1 µg/mL: [11]

CC(=O)NC[C@H]1CN(c2ccc(-c3ccc4c(c3)CC3(C(=O)NC(=O)NC3=O)C3COCCN43)c(F)c2)C(=O)O1 (stereo not given in full)
2 µg/mL: [9] | [11]
32 µg/mL: [1] | [4] | [10]
8 µg/mL: [3] | [6] | [15] | [16]
16 µg/mL: [14]
> 32 µg/mL: [2] | [12]
4 µg/mL: [5] | [7] | [8] | [13]

CCOC(=O)NC[C@H]1CN(c2ccc(-c3ccc4c(c3)CC3(C(=O)NC(=O)NC3=O)C3CCCN43)c(F)c2)C(=O)O1 (stereo not given in full)
8 µg/mL: [3] | [6] | [8] | [9] | [14] | [15] | [16]
4 µg/mL: [5] | [7] | [11] | [13]
32 µg/mL: [4]
> 32 µg/mL: [1] | [2] | [10] | [12]

O=C1NC(=O)C2(Cc3cc(-c4ccc(N5C[C@H](CNC(=O)C(F)(F)F)OC5=O)cc4F)ccc3N3CCCC32)C(=O)N1 (stereo not given in full)
4 µg/mL: [11]
32 µg/mL: [1] | [4] | [8] | [10] | [12]
8 µg/mL: [5] | [7] | [13] | [14] | [16]
16 µg/mL: [3] | [6] | [9] | [15]
> 32 µg/mL: [2]
